pIC50: −log10 of the molar value. Active and inactive are the calls of the source. The calls are words filed in the database; no cut-off is given here.
Legend:
[1] = test system: MCF7; experiment: Induction of cell cycle arrest in human MCF7 cells assessed as accumulation at G0/G1 phase at 1 uM by propidium iodide staining based flow cytometric analysis (reference value: 24.44%); assay type: functional
[2] = test system: MCF7; experiment: Induction of apoptosis in human MCF7 cells assessed as late apoptotic cells at 1 uM by AnnexinV-FITC/propidium iodide staining based flow cytometry (reference value: 0.7%); assay type: functional
[3] = test system: MCF7; experiment: Induction of apoptosis in human MCF7 cells assessed as early apoptotic cells at 1 uM by AnnexinV-FITC/propidium iodide staining based flow cytometry (reference value: 0.8%); assay type: functional
[4] = test system: MCF7; experiment: Induction of apoptosis in human MCF7 cells assessed as necrotic cells at 10 uM by AnnexinV-FITC/propidium iodide staining based flow cytometry (reference value: 0.4%); assay type: functional
[5] = molecular target: T1, Estrogen receptor (Homo sapiens) (UniProt P03372); experiment: Covalent antagonist activity at ERalpha in human MCF7 cells assessed as reduction in E2-stimulated TFF1 gene expression at 1.25 to 10 uM incubated for 24 hrs by RT-PCR analysis; assay type: cell-based; conditions: filed as antagonist, dose 1.25-10 µM
T1 sequence (whole entry): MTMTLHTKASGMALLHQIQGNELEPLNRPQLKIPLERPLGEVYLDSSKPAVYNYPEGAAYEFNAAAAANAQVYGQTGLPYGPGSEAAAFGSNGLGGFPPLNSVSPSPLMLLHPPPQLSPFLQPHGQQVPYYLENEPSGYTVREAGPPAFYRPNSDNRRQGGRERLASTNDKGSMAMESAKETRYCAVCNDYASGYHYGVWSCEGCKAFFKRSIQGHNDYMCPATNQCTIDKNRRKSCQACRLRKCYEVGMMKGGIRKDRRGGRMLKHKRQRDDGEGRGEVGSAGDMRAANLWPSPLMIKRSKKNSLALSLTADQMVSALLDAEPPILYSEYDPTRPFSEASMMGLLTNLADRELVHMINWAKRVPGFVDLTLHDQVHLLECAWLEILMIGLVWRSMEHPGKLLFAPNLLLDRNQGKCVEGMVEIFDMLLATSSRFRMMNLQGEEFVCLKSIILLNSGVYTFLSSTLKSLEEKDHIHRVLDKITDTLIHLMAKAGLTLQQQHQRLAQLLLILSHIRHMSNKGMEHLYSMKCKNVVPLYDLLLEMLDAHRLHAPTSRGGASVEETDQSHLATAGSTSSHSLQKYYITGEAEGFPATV

[6] = test system: MCF7; experiment: Induction of apoptosis in human MCF7 cells assessed as viable cells at 1 uM by AnnexinV-FITC/propidium iodide staining based flow cytometry (reference value: 96.1%); assay type: functional; conditions: read-out: Activity
[7] = test system: MCF7; experiment: Induction of apoptosis in human MCF7 cells assessed as late apoptotic cells at 5 uM by AnnexinV-FITC/propidium iodide staining based flow cytometry (reference value: 0.7%); assay type: functional
[8] = test system: MCF7; experiment: Induction of apoptosis in human MCF7 cells assessed as late apoptotic cells at 10 uM by AnnexinV-FITC/propidium iodide staining based flow cytometry (reference value: 0.7%); assay type: functional
[9] = test system: MCF7; experiment: Induction of apoptosis in human MCF7 cells assessed as early apoptotic cells at 10 uM by AnnexinV-FITC/propidium iodide staining based flow cytometry (reference value: 0.8%); assay type: functional
[10] = test system: MCF7; experiment: Induction of apoptosis in human MCF7 cells assessed as early apoptotic cells at 5 uM by AnnexinV-FITC/propidium iodide staining based flow cytometry (reference value: 0.8%); assay type: functional
[11] = test system: MCF7; experiment: Induction of cell cycle arrest in human MCF7 cells assessed as accumulation at G2/M phase at 10 uM by propidium iodide staining based flow cytometric analysis (reference value: 12.24%); assay type: functional
[12] = test system: MCF7; experiment: Induction of cell cycle arrest in human MCF7 cells assessed as accumulation at S phase at 1 uM by propidium iodide staining based flow cytometric analysis (reference value: 63.32%); assay type: functional
[13] = test system: MCF7; experiment: Downregulation of ERalpha protein expression in human MCF7 cells at 5 uM incubated for 24 hrs by DAPI staining based immunofluorescence microscopy; assay type: functional, cell-based
[14] = test system: MCF7; experiment: Induction of cell cycle arrest in human MCF7 cells assessed as accumulation at G2/M phase at 5 uM by propidium iodide staining based flow cytometric analysis (reference value: 12.24%); assay type: functional
[15] = test system: MCF7; experiment: Induction of apoptosis in human MCF7 cells assessed as viable cells at 10 uM by AnnexinV-FITC/propidium iodide staining based flow cytometry (reference value: 96.1%); assay type: functional; conditions: read-out: Activity
[16] = test system: MDA-MB-231; experiment: Antiproliferative activity against ER-negative human MDA-MB-231 cells assessed as inhibition of cell growth incubated for 48 hrs by CCK8 assay; assay type: functional, cell-based; conditions: MDA-MB-231, 48 h
[17] = test system: MCF7; experiment: Potency index, ratio of raloxifene IC50 to test compound IC50 for antiproliferative activity against ER-positive human MCF7 cells; assay type: functional
[18] = test system: MCF7; experiment: Induction of apoptosis in human MCF7 cells assessed as necrotic cells at 1 uM by AnnexinV-FITC/propidium iodide staining based flow cytometry (reference value: 0.4%); assay type: functional
[19] = test system: MCF7; experiment: Induction of cell cycle arrest in human MCF7 cells assessed as accumulation at S phase at 5 uM by propidium iodide staining based flow cytometric analysis (reference value: 63.32%); assay type: functional
[20] = test system: MCF7; experiment: Induction of cell cycle arrest in human MCF7 cells assessed as accumulation at G2/M phase at 1 uM by propidium iodide staining based flow cytometric analysis (reference value: 12.24%); assay type: functional
[21] = test system: MCF7; experiment: Induction of apoptosis in human MCF7 cells assessed as viable cells at 5 uM by AnnexinV-FITC/propidium iodide staining based flow cytometry (reference value: 96.1%); assay type: functional; conditions: read-out: Activity
[22] = test system: MCF7; experiment: Induction of cell cycle arrest in human MCF7 cells assessed as accumulation at G0/G1 phase at 10 uM by propidium iodide staining based flow cytometric analysis (reference value: 24.44%); assay type: functional
[23] = test system: Ishikawa; experiment: Induction of cell proliferation in human ishikawa cells at 156 to 5000 nM measured after 2 days; assay type: cell-based; conditions: 48 h, 5 µM, dose 156-5000 nM, time 2 day
[24] = molecular target: T1, Estrogen receptor (Homo sapiens); experiment: Antagonist activity at ERalpha receptor in human ishikawa cells assessed as suppression of E2-stimulated PGR expression at 1.25 to 10 uM by RT-PCR analysis; assay type: cell-based; conditions: filed as antagonist, dose 1.25-10 µM
[25] = molecular target: T1, Estrogen receptor (Homo sapiens); experiment: Covalent antagonist activity at ERalpha in human MCF7 cells assessed as reduction in E2-stimulated GREB1 gene expression at 1.25 to 10 uM incubated for 24 hrs by RT-PCR analysis; assay type: cell-based; conditions: filed as antagonist, dose 1.25-10 µM
[26] = test system: Ishikawa; experiment: Antiproliferative activity against ER-positive human Ishikawa cells assessed as inhibition of cell growth incubated for 48 hrs by CCK8 assay; assay type: functional, cell-based
[27] = test system: MCF7; experiment: Induction of cell cycle arrest in human MCF7 cells assessed as accumulation at S phase at 10 uM by propidium iodide staining based flow cytometric analysis (reference value: 63.32%); assay type: functional
[28] = test system: MCF7; experiment: Antiproliferative activity against ER-positive human MCF7 cells assessed as inhibition of cell growth incubated for 48 hrs by CCK8 assay; assay type: functional, cell-based; conditions: MCF7, 48 h
[29] = test system: MCF7; experiment: Induction of apoptosis in human MCF7 cells assessed as necrotic cells at 5 uM by AnnexinV-FITC/propidium iodide staining based flow cytometry (reference value: 0.4%); assay type: functional
[30] = test system: MCF7; experiment: Induction of cell cycle arrest in human MCF7 cells assessed as accumulation at G0/G1 phase at 5 uM by propidium iodide staining based flow cytometric analysis (reference value: 24.44%); assay type: functional

## O=C(c1ccc(OC2CN(C/C=C/C(=O)N3CCCCC3)C2)cc1)c1c(-c2ccc(O)cc2)sc2cc(O)ccc12
[1]
  Activity: 28.53%
[2]
  Activity: 3.4%
[3]
  Activity: 8.3%
[4]
  Activity: 1.3%
[5]
  inhibition: Active
[6]
  viability at 1 µM: 87.1%
[7]
  Activity: 9.7%
[8]
  Activity: 15.8%
[9]
  Activity: 16.6%
[10]
  Activity: 11.5%
[11]
  Activity: 11.72%
[12]
  Activity: 57.31%
[13]
  inhibition: Active
[14]
  Activity: 12.93%
[15]
  viability at 10 µM: 66.3%
[16]
  pIC50: < 4.30
[17]
  Ratio IC50: 20
[18]
  Activity: 1.2%
[19]
  Activity: 54.23%
[20]
  Activity: 14.1%
[21]
  viability at 5 µM: 77.4%
[22]
  Activity: 38.85%
[23]
  Activity: Non-Toxic
[24]
  inhibition: Active
[25]
  inhibition: Active
[26]
  pIC50: 4.99
[27]
  Activity: 49.43%
[28]
  pIC50: 5.88
[29]
  Activity: 1.4%
[30]
  Activity: 32.84%

## O=C(c1ccc(OC2CN(C/C=C/C(=O)N3CCOCC3)C2)cc1)c1c(-c2ccc(O)cc2)sc2cc(O)ccc12
[17]
  Ratio IC50: 4
[26]
  pIC50: 4.74
[28]
  pIC50: 5.24

## CN(C)C(=O)/C=C/CN1CC(Oc2ccc(C(=O)c3c(-c4ccc(O)cc4)sc4cc(O)ccc34)cc2)C1
[26]
  pIC50: 4.53
[28]
  pIC50: 4.53

## C=CC(=O)N1CCN(c2ccc(C(=O)c3c(-c4ccc(O)cc4)sc4cc(O)ccc34)cc2)CC1
[26]
  pIC50: < 4.00
[28]
  pIC50: < 4.30

## O=C(c1ccc(OCCNC/C=C/C(=O)N2CCCCC2)cc1)c1c(-c2ccc(O)cc2)sc2cc(O)ccc12
[26]
  pIC50: 5.20
[28]
  pIC50: 4.94

## C=CC(=O)N1CC(Oc2ccc(C(=O)c3c(-c4ccc(O)cc4)sc4cc(O)ccc34)cc2)C1
[26]
  pIC50: 4.78
[28]
  pIC50: 4.50

## CN(C)C(=O)/C=C/CNCCOc1ccc(C(=O)c2c(-c3ccc(O)cc3)sc3cc(O)ccc23)cc1
[26]
  pIC50: 4.31
[28]
  pIC50: < 4.30

## C/C=C/C(=O)NCCOc1ccc(C(=O)c2c(-c3ccc(O)cc3)sc3cc(O)ccc23)cc1
[26]
  pIC50: < 4.00
[28]
  pIC50: < 4.30

## O=C(c1ccc(OC2CN(CCCC(=O)N3CCCCC3)C2)cc1)c1c(-c2ccc(O)cc2)sc2cc(O)ccc12
[16]
  pIC50: < 4.30
[26]
  pIC50: < 4.30
[28]
  pIC50: < 4.30

## C=CC(=O)NCCOc1ccc(C(=O)c2c(-c3ccc(O)cc3)sc3cc(O)ccc23)cc1
[26]
  pIC50: < 4.00
[28]
  pIC50: 4.43

## CC/C(=C(\c1ccc(O)cc1)c1ccc(OCCN(C)C)cc1)c1ccccc1 [AFIMOXIFENE]
[23]
  Activity: Toxic

## O=C(c1ccc(OCCN2CCCCC2)cc1)c1c(-c2ccc(O)cc2)sc2cc(O)ccc12 [RALOXIFENE]
[26]
  pIC50: 4.55
[28]
  pIC50: 4.66

## C=C(C)C(=O)NCCOc1ccc(C(=O)c2c(-c3ccc(O)cc3)sc3cc(O)ccc23)cc1
[26]
  pIC50: 4.53
[28]
  pIC50: 4.54

## O=C(c1ccc(OCCNC/C=C/C(=O)N2CCC2)cc1)c1c(-c2ccc(O)cc2)sc2cc(O)ccc12
[26]
  pIC50: 4.53
[28]
  pIC50: 4.62

## O=C(c1ccc(OC2CN(C/C=C/C(=O)N3CCC3)C2)cc1)c1c(-c2ccc(O)cc2)sc2cc(O)ccc12
[26]
  pIC50: 4.59
[28]
  pIC50: 4.63

## COCCNC(=O)/C=C/CNCCOc1ccc(C(=O)c2c(-c3ccc(O)cc3)sc3cc(O)ccc23)cc1
[26]
  pIC50: 4.26
[28]
  pIC50: 4.37

## O=C(c1ccc(OCCNC/C=C/C(=O)N2CCOCC2)cc1)c1c(-c2ccc(O)cc2)sc2cc(O)ccc12
[16]
  pIC50: < 4.30
[26]
  pIC50: 4.60
[28]
  pIC50: 5.08

## CNC(=O)/C=C/CNCCOc1ccc(C(=O)c2c(-c3ccc(O)cc3)sc3cc(O)ccc23)cc1
[16]
  pIC50: < 4.30
[26]
  pIC50: 4.29
[28]
  pIC50: 4.88

## O=C(c1ccc(OCCNC/C=C/C(=O)N2CCCC2)cc1)c1c(-c2ccc(O)cc2)sc2cc(O)ccc12
[26]
  pIC50: 4.34
[28]
  pIC50: 4.62

## C=C(C)C(=O)N1CCN(c2ccc(C(=O)c3c(-c4ccc(O)cc4)sc4cc(O)ccc34)cc2)CC1
[26]
  pIC50: < 4.00
[28]
  pIC50: < 4.30

## CC/C(=C(\c1ccccc1)c1ccc(OCCN(C)C)cc1)c1ccccc1 [TAMOXIFEN]
[26]
  pIC50: 4.84

## CNC(=O)/C=C/CN1CC(Oc2ccc(C(=O)c3c(-c4ccc(O)cc4)sc4cc(O)ccc34)cc2)C1
[16]
  pIC50: < 4.30
[26]
  pIC50: 4.35
[28]
  pIC50: 4.95

## C/C=C/C(=O)N1CC(Oc2ccc(C(=O)c3c(-c4ccc(O)cc4)sc4cc(O)ccc34)cc2)C1
[26]
  pIC50: 4.65
[28]
  pIC50: 4.63

## C=C(C)C(=O)N1CC(Oc2ccc(C(=O)c3c(-c4ccc(O)cc4)sc4cc(O)ccc34)cc2)C1
[26]
  pIC50: 4.65
[28]
  pIC50: 4.64

Reference: ChEMBL document CHEMBL4808256, “Benzothiophene derivatives as selective estrogen receptor covalent antagonists: Design, synthesis and anti-ERα activities” (Bioorg Med Chem, 2021)
